Some test systems named below: K562; U-251; CCRF-CEM; CAKI-1; SNB-19; MDA-N; HCT-15; A498; DU-145; NCI-H226; IGROV-1; UACC-62; MDA-MB-231; M14; MDA-MB-435; HCT-116; OVCAR-8; T47D; UACC-257.
Common to all, as to assay: NCI-60 cell line screen, 48 h

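48-hour exposure; five concentrations; linearly interpolated endpoints. GI50 = concentration required for 50% inhibition of growth.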 Calls of active or inactive are those of the source. No stated cut-off is given here; in the data, active = GI50 up to about 1.1 µM and inactive = higher.

`CC(OP(=O)(O)O)C(N)C(=O)O` (configuration not stated): the GI50 in the assay on K562, in the assay with U-251, with CCRF-CEM, with CAKI-1, in the assay on SNB-19 and in the assay on MDA-N was > 100 µM (inactive) each time. Also, the GI50 is more than 100 µM in the assay on HCT-15; > 100 µM (inactive) in the assay with A498; > 100 µM (inactive) in the assay on DU-145; > 100 µM (inactive) with NCI-H226; > 100 µM (inactive) in the assay on IGROV-1; > 100 µM (inactive) in the assay with UACC-62. Also, the GI50 with MDA-MB-231, in the assay on M14, in the assay on MDA-MB-435, with HCT-116, with OVCAR-8 and in the assay with T47D was > 100 µM (inactive) throughout. The GI50 in the assay on UACC-257 was > 100 µM (inactive).
Consider `NC1=CN(Cc2ccccc2)C2=N/C(=C\c3ccco3)C(=O)N12`, for which the GI50 in the assay with K562, in the assay on U-251, with CCRF-CEM, with CAKI-1, in the assay on SNB-19 and with MDA-N was > 100 µM (inactive) each time. The GI50 in the assay with HCT-15 was more than 100 µM; in the assay with A498, > 100 µM (inactive); with DU-145, > 100 µM (inactive); in the assay on NCI-H226 it was > 100 µM (inactive); in the assay on IGROV-1, > 100 µM (inactive); in the assay with UACC-62, > 100 µM (inactive). In addition, the GI50 in the assay on MDA-MB-231, in the assay with M14, in the assay on MDA-MB-435, in the assay on HCT-116, with OVCAR-8 and with T47D was > 100 µM (inactive) throughout. In addition, the GI50 in the assay with UACC-257 was > 100 µM (inactive).
With `Cc1ccc(-c2cc(-c3ccc(Cl)cc3)nc(/N=C3\C(=O)N(CN(C)C)c4ccccc43)n2)cc1`, the GI50 with K562 is 27.3 µM (inactive); in the assay on U-251 it was 55 µM (inactive); in the assay with CCRF-CEM it was 14.9 µM (inactive); in the assay on CAKI-1 it was 87.9 µM (inactive); in the assay on SNB-19 it was > 100 µM (inactive); in the assay with MDA-N it was 19.4 µM (inactive). Besides, the GI50 in the assay with HCT-15 is 41.1 µM; in the assay on A498, > 100 µM (inactive); in the assay with DU-145, 31.7 µM (inactive); in the assay on NCI-H226 it was > 100 µM (inactive); in the assay with IGROV-1, 53.5 µM (inactive); in the assay with UACC-62, 97.1 µM (inactive). The GI50 was > 100 µM (inactive) in the assay with MDA-MB-231; > 100 µM (inactive) in the assay on M14; 17.1 µM (inactive) in the assay with MDA-MB-435; 64 µM (inactive) in the assay on HCT-116; 58.9 µM (inactive) in the assay with OVCAR-8; 28.8 µM (inactive) in the assay with T47D. Further, the GI50 in the assay on UACC-257 is 24.8 µM (inactive).
`Cc1c2c(c(C)c3c[n+](C)ccc13)Oc1ccccc1O2`: the GI50 in the assay with K562 was 3.59 µM (inactive); in the assay with U-251, 1.21 µM (inactive); in the assay on CCRF-CEM, 3.87 µM (inactive); with CAKI-1, > 67.5 µM (inactive); in the assay on SNB-19, 1.74 µM (inactive); in the assay with MDA-N it was 18.6 µM (inactive). In addition, the GI50 in the assay with HCT-15 was more than 62.2 µM; in the assay with A498, 28.6 µM (inactive); in the assay on DU-145, 22.9 µM (inactive); in the assay on NCI-H226 it was 5.66 µM (inactive); in the assay on IGROV-1, 13.9 µM (inactive); in the assay on UACC-62, 12.7 µM (inactive). In addition, the GI50 in the assay on MDA-MB-231 is 24.6 µM (inactive); in the assay on M14, 18.2 µM (inactive); with MDA-MB-435, 15.1 µM (inactive); in the assay with HCT-116, 22.8 µM (inactive); with OVCAR-8, 6.05 µM (inactive); in the assay with T47D, 2.57 µM (inactive). Moreover, the GI50 in the assay with UACC-257 is 6.87 µM (inactive).
In the case of `COC(=O)C1(Cc2ccccc2C)Cc2ccc(C)cc2C1=O` (configuration not stated), the GI50 is 42.2 µM (inactive) in the assay on K562; 39 µM (inactive) in the assay on U-251; 48 µM (inactive) in the assay with CCRF-CEM; 36.1 µM (inactive) in the assay on CAKI-1; 64.6 µM (inactive) in the assay with SNB-19; 29.9 µM (inactive) in the assay with MDA-N. The GI50 is 27.4 µM in the assay with HCT-15; 31.3 µM (inactive) in the assay on A498; 56.8 µM (inactive) in the assay on DU-145; 34.2 µM (inactive) with NCI-H226; 70.5 µM (inactive) in the assay with IGROV-1; 40.6 µM (inactive) in the assay with UACC-62. Also, the GI50 is 42.2 µM (inactive) in the assay on MDA-MB-231; 37.2 µM (inactive) in the assay with M14; 32.3 µM (inactive) with MDA-MB-435; 27.2 µM (inactive) with HCT-116; 47.9 µM (inactive) in the assay on OVCAR-8; 22.8 µM (inactive) in the assay with T47D. Further, in the assay on UACC-257, the GI50 is 29.4 µM (inactive).
In the case of `O=C(CC(C(=O)c1cccs1)c1cccs1)c1ccccc1Cl` (configuration not stated), the GI50 in the assay on K562 is 98.4 µM (inactive); with U-251 it was > 100 µM (inactive); in the assay with CCRF-CEM, > 100 µM (inactive); in the assay on CAKI-1 it was > 100 µM (inactive); in the assay on SNB-19, > 100 µM (inactive); with MDA-N, 97.7 µM (inactive). The GI50 in the assay with HCT-15 was 94.8 µM; in the assay with A498, > 100 µM (inactive); with DU-145, > 100 µM (inactive); in the assay with NCI-H226, > 100 µM (inactive); with IGROV-1, > 100 µM (inactive); in the assay with UACC-62, > 100 µM (inactive). Besides, the GI50 is > 100 µM (inactive) in the assay on MDA-MB-231; > 100 µM (inactive) in the assay with M14; > 100 µM (inactive) with MDA-MB-435; 52.1 µM (inactive) in the assay on HCT-116; > 100 µM (inactive) with OVCAR-8; 52 µM (inactive) with T47D. Moreover, in the assay on UACC-257, the GI50 was 74.3 µM (inactive).
Regarding `COc1ccc2c(c1)CCc1c-2n(CCN2CCCCC2)c2ccc(OC)cc12`, the GI50 in the assay on K562 is 78.7 µM (inactive); in the assay with U-251, > 100 µM (inactive); in the assay on CCRF-CEM it was > 100 µM (inactive); with CAKI-1, > 100 µM (inactive); with SNB-19, > 100 µM (inactive); in the assay on MDA-N, > 100 µM (inactive). The GI50 in the assay on HCT-15 was more than 100 µM; in the assay on A498, > 100 µM (inactive); in the assay on DU-145 it was > 100 µM (inactive); with NCI-H226, 10.4 µM (inactive); in the assay with IGROV-1 it was > 100 µM (inactive); with UACC-62, > 100 µM (inactive). Also, the GI50 is > 100 µM (inactive) in the assay with MDA-MB-231; > 100 µM (inactive) in the assay on M14; > 100 µM (inactive) in the assay on MDA-MB-435; > 100 µM (inactive) in the assay on HCT-116; 92 µM (inactive) in the assay with OVCAR-8; > 100 µM (inactive) in the assay with T47D. In the assay with UACC-257, the GI50 is > 100 µM (inactive).
As for `C=CCN1C(=O)/C(=C/c2cccs2)N=C1SC/C=C/C`, the GI50 is 32.5 µM (inactive) in the assay with K562; 37.7 µM (inactive) in the assay with U-251; 34.8 µM (inactive) in the assay on CCRF-CEM; 46.9 µM (inactive) in the assay on CAKI-1; 80.9 µM (inactive) in the assay with SNB-19; 24.7 µM (inactive) with MDA-N. Also, the GI50 is 33.5 µM in the assay with HCT-15; 27 µM (inactive) in the assay on A498; 63.1 µM (inactive) in the assay with DU-145; > 100 µM (inactive) with NCI-H226; 63.8 µM (inactive) with IGROV-1; 32.4 µM (inactive) in the assay on UACC-62. Besides, the GI50 in the assay on MDA-MB-231 was 68.1 µM (inactive); with M14, 69.5 µM (inactive); with MDA-MB-435, 34.5 µM (inactive); in the assay with HCT-116, 26.3 µM (inactive); with OVCAR-8, 37.6 µM (inactive); in the assay on T47D, 21 µM (inactive). In addition, the GI50 with UACC-257 was 40.3 µM (inactive).

The values above are taken from ChEMBL document CHEMBL1201862, “PubChem BioAssay data set” (2004).
